Measurements: patent publication US20110039721A1, “METHOD FOR PREDICTION ABOUT CARCINOGENICITY OF SUBSTANCE IN RODENT” (Chemicals Evaluation and Research Institute, priority 2007, published 2011)

Columns and labels:
[1] = tested on: mRNA expressed from the genes (A) to (D) in rat liver; assay: Behavior of genes (mRNA expression level, oligo-DNA microarray) in rat liver after 28-day oral administration; format: in vivo; settings: mRNA vs vehicle control group
How it was run: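 Oral gavage, once daily × 28 days; male F344 SPF rats, 5 wk, n=4/group; vehicle controls given equal solvent volume. Liver excised day 28, total RNA purified. Significance: ≥1.5× or ≤1/1.5 of vehicle, direction concordant with other carcinogens.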

liver = settings: in vivo; cited from earlier work
rodent = settings: in vivo; cited from earlier work
[2] = gene group (A), Unigene No. Rn.167075
[3] = gene group (C), Unigene No. Rn.120914

## CCCCC(CC)COC(=O)c1ccccc1C(=O)OCC(CC)CCCC (centres unmarked) [TS002, Di(2-ethylhexyl)phthalate]
[1]; gene group (A), Unigene No. Rn.144554
  Behavior of gene caused by administration of chemical substance, Gene No. 4846: −
[1]; [2]
  Behavior of gene caused by administration of chemical substance, Gene No. 2026: +
  Behavior of gene caused by administration of chemical substance, Gene No. 4218: −
[1]; gene group (A), Unigene No. Rn.5834
  Behavior of gene caused by administration of chemical substance, Gene No. 6182: −
[1]; gene group (A), Unigene No. Rn.9836
  Behavior of gene caused by administration of chemical substance, Gene No. 5600: −
[1]; gene group (B), Unigene No. Rn.1430
  Behavior of gene caused by administration of chemical substance, Gene No. 1494: +
[1]; gene group (B), Unigene No. Rn.19329
  Behavior of gene caused by administration of chemical substance, Gene No. 2045: +
[1]; gene group (B), Unigene No. Rn.21240
  Behavior of gene caused by administration of chemical substance, Gene No. 2203: +
[1]; gene group (C), Unigene No. Rn.106184
  Behavior of gene caused by administration of chemical substance, Gene No. 533: +
[1]; gene group (C), Unigene No. Rn.108075
  Behavior of gene caused by administration of chemical substance, Gene No. 725: +
[1]; gene group (C), Unigene No. Rn.11766
  Behavior of gene caused by administration of chemical substance, Gene No. 1163: −
[1]; gene group (C), Unigene No. Rn.118529
  Behavior of gene caused by administration of chemical substance, Gene No. 4973: +
[1]; gene group (C), Unigene No. Rn.119024
  Behavior of gene caused by administration of chemical substance, Gene No. 4095: +
[1]; [3]
  Behavior of gene caused by administration of chemical substance, Gene No. 1334: −
  Behavior of gene caused by administration of chemical substance, Gene No. 6620: −
[1]; gene group (C), Unigene No. Rn.123063
  Behavior of gene caused by administration of chemical substance, Gene No. 6303: −
[1]; gene group (C), Unigene No. Rn.143213
  Behavior of gene caused by administration of chemical substance, Gene No. 5878: −
[1]; gene group (C), Unigene No. Rn.144946
  Behavior of gene caused by administration of chemical substance, Gene No. 1131: +
[1]; gene group (C), Unigene No. Rn.14744
  Behavior of gene caused by administration of chemical substance, Gene No. 1562: −
[1]; gene group (C), Unigene No. Rn.1647
  Behavior of gene caused by administration of chemical substance, Gene No. 1741: −
[1]; gene group (C), Unigene No. Rn.164817
  Behavior of gene caused by administration of chemical substance, Gene No. 893: −
[1]; gene group (C), Unigene No. Rn.167685
  Behavior of gene caused by administration of chemical substance, Gene No. 6026: −
[1]; gene group (C), Unigene No. Rn.185941
  Behavior of gene caused by administration of chemical substance, Gene No. 154: −
[1]; gene group (C), Unigene No. Rn.18728
  Behavior of gene caused by administration of chemical substance, Gene No. 1993: −
[1]; gene group (C), Unigene No. Rn.201760
  Behavior of gene caused by administration of chemical substance, Gene No. 813: +
[1]; gene group (C), Unigene No. Rn.23969
  Behavior of gene caused by administration of chemical substance, Gene No. 2494: −
[1]; gene group (C), Unigene No. Rn.24561
  Behavior of gene caused by administration of chemical substance, Gene No. 2546: −
[1]; gene group (C), Unigene No. Rn.43232
  Behavior of gene caused by administration of chemical substance, Gene No. 3776: −
[1]; gene group (C), Unigene No. Rn.4620
  Behavior of gene caused by administration of chemical substance, Gene No. 3929: −
[1]; gene group (C), Unigene No. Rn.9757
  Behavior of gene caused by administration of chemical substance, Gene No. 1119: −
[1]; gene group (C), Unigene No. Rn.9779
  Behavior of gene caused by administration of chemical substance, Gene No. 6742: +
[1]; gene group (C), Unigene No. Rn.9862
  Behavior of gene caused by administration of chemical substance, Gene No. 5634: −
[1]; gene group (D), Unigene No. Rn.9939
  Behavior of gene caused by administration of chemical substance, Gene No. 5726: −
liver
  Liver carcinogenicity: Cr+
rodent
  Carcinogenicity: C+
